The source of these data is patent US6287787A, “Dimeric oligopeptide mixture sets” (Torrey Pines Institute for Molecular Studies, priority 1993, dated 2001).

Structures are written as SMILES. Where a SMILES comes first, the peptide text is derived from it. Bridges are numbered along the chain shown (N, C = ends). Roman numbers before positions name the chains, in order. [ ]: non-standard residue; d: D form. Met(O) = CS(=O)CC[C@H](N)C(=O)O

For the assay, the target named is T1, trypsin (bovine pancreas trypsin, Type I) (Bos taurus, UniProt P00760).
T1 construct: purchased Sigma Chemicals T 8003; host or cells: bovine pancreas
T1 sequence (P00760 24-246): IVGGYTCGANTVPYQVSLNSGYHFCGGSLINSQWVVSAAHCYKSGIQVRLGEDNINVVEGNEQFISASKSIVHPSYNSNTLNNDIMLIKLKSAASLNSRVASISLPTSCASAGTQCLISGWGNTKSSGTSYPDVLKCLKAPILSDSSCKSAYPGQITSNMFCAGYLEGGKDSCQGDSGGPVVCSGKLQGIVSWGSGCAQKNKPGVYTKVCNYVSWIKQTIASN
Kind of assay: Competitive inhibition of tryptic hydrolysis of Nα-benzoyl-D,L-arginine-p-nitroanilide. Type of assay: biochemical. The protocol: The inhibition observed was 55 percent at 5 mg/ml.
For these assays, 50 μl of dimeric oligopeptide mixture set solutions in water (0.5-5 mM) were added to 0.1 M Tris-HCl containing 0.025 M CaCl2, pH 7.8 (100 μl), to which were added 15 μl of trypsin (bovine pancreas trypsin, Type I; Sigma Chemicals T 8003; 0.05 mg/ml in 0.02 N HCl ). The solution was maintained for 30 minutes, and the above substrate (N^α -benzoyl-D,L-arginine-p-nitroanitide) was added (100 μl, 1 mg/ml in water). Absorbances at 405 nm were read using a Titertek multichannel photometer after another 30 minutes had elapsed and were expressed as a percentage of the control (absorbance of a solution without peptide).

The term IC50 denotes the point on the concentration scale where inhibition reaches its midpoint. Lower therefore signals greater potency. The compound `CC(=O)N[C@@H](CC[S+](C)[O-])C(=O)N[C@@H](CSSC[C@H](NC(=O)[C@H](CC[S+](C)[O-])NC(C)=O)C(=O)N[C@@H](Cc1c[nH]c2ccccc12)C(=O)N[C@@H](CCCNC(=N)N)C(N)=O)C(=O)N[C@@H](Cc1c[nH]c2ccccc12)C(=O)N[C@@H](CCCNC(=N)N)C(N)=O` (stereo partly shown) [SEQ ID NO:4] (I: Ac-[Met(O)]CWR-NH2 / II: Ac-[Met(O)]CWR-NH2; disulfide I:2-II:2) showed an IC50 of 53 µM. This counts as double-digit micromolar.
